According to a melting point compilation (Tetko et al.; mined from patent text by program, amines drawn as free bases though some values may be those of a salt):

`CCCOc1ccc(C(CC(=O)O)N2C(=O)c3ccccc3C2=O)cc1` (centres undefined) gave a melting point of 142 to 144 °C. In the case of `CC(C)(C)c1ccc(/C=N/OCCCOc2ccc(C(=O)O)c(NC(=O)c3cc(C(F)(F)F)cc(C(F)(F)F)c3)c2)cc1`, the melting point is reported as 158 °C. With `CCOCc1nc2c(N)nc3cc(OCc4ccccc4C)ccc3c2n1CC(C)C` the melting point was 216 to 218 °C. Molecule `Cc1ccccc1-c1c2c(cc3ccc(O)cc13)-c1ccc(O)cc1CO2` has a melting point of 193 to 196 °C. For `CCN1c2ccccc2Sc2cc(C=O)ccc21`, the melting point was 94 to 95 °C. In the case of `CC1(C)Oc2ccc(-c3nnnn3CCCC(=O)O)cc2[C@@H](Oc2ccc(O)nn2)[C@]1(C)O`, the melting point is reported as 116 to 126 °C. `CCCCC1(Cc2c(F)cccc2Cl)NC=C(C=O)N1` (centres undefined) gave a melting point of 88 to 90 °C. `COC(=O)c1cc(CBr)cc(C2(C#N)CCC2)c1` gave a melting point of 93.9 to 94.6 °C. Molecule `O=C(O)c1cn(-c2cccc(I)c2)cn1` has a melting point of 229 to 230 °C. For `COC(=O)CCSCc1csc(NC(N)=NCC(F)(F)F)n1`, the melting point was 96 to 98 °C. Work on `COc1ccc(O)c2[nH]c(C)c(C)c12` yielded a melting point of 159 °C. In the case of `COCOc1cc(OC)ccc1Br`, the melting point is reported as 40 to 42 °C. Molecule `CC(=O)N[C@H]1CCN(C(=O)c2ccc(-c3[nH]nc4c3C(=O)c3c(NC(=O)NN5CCOCC5)cccc3-4)s2)C1` has a melting point of 264 to 265 °C. `CCCS(=O)c1sc(C(N)=O)c2c1-c1c(cnn1CC(F)(F)F)CC2` (centres undefined) gave a melting point of 165 to 166 °C. For `c1ccc(-c2ccc(CCN3CCN(c4ccccc4)CC3)s2)cc1`, the melting point was 124 °C. Molecule `c1ccc(CC(=Nn2cncn2)c2ccccc2)cc1` has a melting point of 78 to 80 °C. For `CCCCC1Sc2c(cc(OC)c(Cl)c2Cl)C1O` (centres undefined), the melting point was 95 to 96 °C. `COc1ccc2c(c1)CC[C@@H](O)[C@@H]2N1CCCC1` (relative stereo) gave a melting point of 79 to 80 °C. `COc1cc(CN2CCN(c3ccc(C(=O)NC4CC4)cc3F)CC2)cc2c1OC(C)C(=O)N2` (centres undefined) gave a melting point of 233 °C. `CN1C(=O)C(C)(C)C(=O)N(C)c2ccccc21` gave a melting point of 159 to 160 °C. `CCC(O)(CCC(N)=O)c1ccc(Cl)c(Cl)c1` (centres undefined) gave a melting point of 106 to 107 °C. Molecule `Cc1cc(C)cc(NC(=O)c2ccc([N+](=O)[O-])cc2)c1` has a melting point of 206 to 210 °C. `CCOc1sc(C(=O)N2CCCC2)c2c1C(=O)C(=CO)C(C)(C)C2` gave a melting point of 140 to 142 °C. In the case of `CON=C(C(=O)OC)c1c(C)cccc1CBr`, the melting point is reported as 76 to 78 °C. `O=C(OCc1ccccc1)N1C=CC(c2cccc(Cl)c2Cl)C=C1` showed a melting point of 69 to 70 °C. For `c1ccc(CN2CCc3[nH]c4c(-c5ccccc5)cccc4c3CC2)cc1`, the melting point was 78 to 79 °C. Work on `Cc1cc(C)c2cccc(OCc3c(Cl)ccc(S(=O)(=O)N4CCC[C@H]4C(=O)N4CCCNCC4)c3Cl)c2n1` yielded a melting point of 65 °C. `COc1ccc(C=CS(=O)(=O)Cl)cc1` showed a melting point of 65 to 67 °C. Work on `Cc1cc([C@@H](O)[C@@H]2[C@@H](C)CCCC2(C)C)ccc1C#N` yielded a melting point of 111 to 113 °C. `CCOC(NC(=O)c1cccc(Cl)c1)C(N)=S` (centres undefined) gave a melting point of 136 to 137 °C. In the case of `COc1ccc(C(=O)Nc2ccccc2)cc1NCc1cc(Cl)cc(Cl)c1`, the melting point is reported as 164 to 165 °C. Work on `COc1ccc(Cc2nnc(N[C@H]3CO[C@H](C(C)C)OC3)c3ccccc23)cn1` yielded a melting point of 186 to 187 °C. `O=C(Cc1cccc2ccccc12)Nc1cc([C@H]2C[C@@H](NC(=O)c3ccc4ccccc4n3)C2)[nH]n1` showed a melting point of 200 °C. With `COc1ccc(NC(=N)c2ccc(SC)cc2)cc1` the melting point was 166 to 168 °C. `CC(C)(C)OC(=O)Cc1nn(Cc2nc3cc(C(F)(F)F)ccc3s2)c(=O)c2cccnc12` gave a melting point of 121 to 122 °C. In the case of `CCCCNC(=O)NS(=O)(=O)c1ccc(CCNC(=O)N2Cc3ccc(C)cc3C2=O)cc1`, the melting point is reported as 169 to 171 °C. `O=C(O)CCc1cn(Cc2cc(OCc3ccccc3)cc(OCc3csc(-c4cnccn4)n3)c2)cc1-c1ccccc1` gave a melting point of 109 to 110 °C. `Oc1ccc2c(c1)CCCC(c1ccccc1)=C2c1ccc(OCCCCCSCc2ccco2)cc1` showed a melting point of 171 °C. Work on `Cc1cc(C(=O)NC2CC2)ccc1N1CCN(C(=O)OC(C)(C)C)CC1` yielded a melting point of 111 to 115 °C. `CN(C)S(=O)(=O)c1cn(C)c2cc(C(F)(F)F)ccc2c1=O` gave a melting point of 221 to 223 °C. For `CN1Cc2cccc3[nH]cc(c23)C1`, the melting point was 185 to 186 °C. In the case of `O=C(O)Cc1ccc2c(c1)CCc1ccccc1O2`, the melting point is reported as 135 to 137 °C. For `Cc1c(CC(=O)O)c2cc(OCc3ccc4ccccc4c3)ccc2n1Cc1ccc(Cl)cc1`, the melting point was 168 to 170 °C. With `CCC(C)(C)c1ccc(Oc2cc(NC(=O)Nc3ccc(C#N)cc3)c(O)cc2[N+](=O)[O-])c(C(C)(C)CC)c1` the melting point was 212 to 215 °C. Work on `CCCCCCCN(CCN1CCN(CCSc2nc3c(C)c(Cl)cc(C(C)C)c3o2)CC1)C(=O)Nc1c(C(C)C)cc(O)cc1C(C)C` yielded a melting point of 138 to 140 °C. Molecule `O=C(O)c1cccc(-c2ccc3c(c2)C(Oc2ccc(Cl)cc2Cl)CC3)c1` (centres undefined) has a melting point of 173 to 174 °C. `NS(=O)(=O)c1ccc(S(=O)(=O)N2CCc3cccc(-c4ccc(F)cc4)c32)cc1` showed a melting point of 189 to 190 °C. Molecule `CCOC(=O)Cn1c(=O)c2ccccc2n(Cc2ccc(Cl)cc2)c1=O` has a melting point of 138 to 139 °C. With `CCn1c(=O)c2c(nc(/C=C/c3cccc(OC)c3OC)n2C)n(CC)c1=O` the melting point was 195 to 196 °C. Molecule `CCOC(=O)NC(=O)c1nc(Cl)c(Cl)[nH]1` has a melting point of 208 °C. `COCOc1cc(Br)ccc1-c1cc(-c2cccc([N+](=O)[O-])c2)c(C#N)c(NC(=O)c2cccs2)n1` showed a melting point of 166 to 167 °C. `COc1ccc(S(=O)(=O)N2Cc3ccccc3N(C(=O)c3ccc(-n4ccc(C)n4)cc3Cl)CC2C(=O)NO)cc1` (centres undefined) showed a melting point of 189 to 191 °C. Molecule `Cc1ccnc(-c2cc(CO)ccn2)c1` has a melting point of 110 to 112 °C. Molecule `NS(=O)(=O)c1ccccc1CSC1=NCCS1` has a melting point of 123 to 125 °C. `CC1C(Cl)(Cl)C1(C)c1ccc(O)cc1` (centres undefined) gave a melting point of 79 to 82 °C. `CCc1nc2cc(S(C)(=O)=O)c(Cl)cc2n1-c1ccc(CCNC(=O)NS(=O)(=O)c2ccc(C)cc2)cc1` showed a melting point of 105 to 118 °C. `c1ccc(COc2ccc3c(c2)CCc2c-3[nH]c3ccc(OCc4ccccc4)cc23)cc1` showed a melting point of 177 to 180 °C. `CCOC(=O)/C=C/[C@H]1CC[C@H](c2ccc(C#N)cc2)CC1` showed a melting point of 125 °C. `CC(CC(=O)Nc1c(Cl)ccc2nc(N3CCC(N)C3)ccc12)c1ccccc1` (centres undefined) showed a melting point of 204 to 207 °C. Molecule `COc1cccc(-n2ncc(C(=O)O)c2C(N)=O)c1` has a melting point of 213 to 216 °C. For `CN(C)C1CCN(c2nc(N3CCOCC3)c3ncnc(N(Cc4ccccc4)Cc4ccccc4)c3n2)CC1`, the melting point was 163 °C. Molecule `CCOC(=O)N(c1ccc(Cl)cc1Cl)c1ccc(Cl)cc1-n1nc(C(=O)O)nc1CCl` has a melting point of 186 °C. In the case of `CC(=O)NC1(C)Cc2ccccc2C(C)c2ccccc2C1` (centres undefined), the melting point is reported as 185 to 224 °C. `CNC(=O)c1ccc(N2CCN(Cc3cc(C)c4c(c3)NC(=O)C(C)O4)CC2)c(Cl)c1` (centres undefined) gave a melting point of 232 °C. In the case of `Cn1cc(-c2cccc(N3CCc4c(sc5c4CCCC5)C3=O)c2CO)nc(Nc2cnn(CCO)c2)c1=O`, the melting point is reported as 198 to 199 °C. `O=C(O)c1ccc(-c2cnc(-c3ccc(C(F)(F)F)cc3)o2)cc1` gave a melting point of 253 to 254 °C. Work on `CN1CCCC(O)(c2cccc3[nH]ccc23)C1` (centres undefined) yielded a melting point of 250 °C. Molecule `N#CC1=C(c2ccc(Cl)cc2)NC(C(F)(F)F)C1` (centres undefined) has a melting point of 158 to 160 °C. Work on `c1ccc(C(c2ccccc2)N2CCN(Cc3cscn3)CC2)cc1` yielded a melting point of 114 to 116 °C.
